Measurements taken from US11530514B2, “Method for manufacturing a fibrous web” (Kemira Oyj, priority 2017, dated 2022).
Where a name gives a salt, the structure may show the parent alone.

Tests used:
Format in all cases: cell-based
aerobic spores [1] = experiment: Example 3: aerobic spore count in spiked paper machine process water, biocidal pre-treatment
Experimental: (§1) Objective of this laboratory test was to study effect of biocidal pre-treatment on bacterial killing and spore sensitisation efficacy of a germinant surfactant comprising 35 weight-% of dodecylguanidine hydrochloride (DGH) and dipropyleneglycol as solvent in paper machine process water.
Authentic circulation water (1 litre) was collected from a paper machine producing food packaging board and divided into 4 samples with volume of 50 ml. To obtain equal bacterial spore content in the samples at start of the experiment, each sample was spiked with additional bacterial spores. The target level for spores was c.a. 10 000 CFU/ml. The spore solution for spiking was prepared as follows: authentic spore-forming bacteria that were isolated from a paper making process were pre-grown for 2 days at +37° C. in modified nutrient broth, after which the mature spores were harvested, and washed by using centrifugation and cold water. Out of the 4 samples, • the first sample was left without any chemical addition as a reference sample. • the second sample was treated with sodium hypochlorite, at dosage of 5 mg/I, given as active chlorine; • the third sample was treated with a germinant surfactant comprising dodecylguanidine hydrochloride (DGH), at dosage level of 100 mg/I, given as active compound; and • the fourth sample was treated with sodium hypochlorite, at dosage of 5 mg/I, given as active chlorine) for 1 minute, after which the […] sample was treated with a germinant surfactant comprising dodecylguanidine hydrochloride (DGH), at dosage level of 100 mg/I, given as active compound;
Samples were stored at 45° C., under mixing of 180 rpm, for 30 minutes except samples 2 and 4, which were in addition pre-treated with sodium hypochlorite for 1 minute. After the treatment the amount of total aerobic bacteria (non-pasteurized samples) and aerobic spores were quantified (plate count agar, +32° C., 2 days incubation). Prior to the aerobic spore determination, samples were pasteurized at +82° C. for 10 min.

total aerobic bacteria [2] = experiment: Example 3: total aerobic bacteria count in paper machine process water, biocidal pre-treatment; conditions: sodium hypochlorite 5 ppm as active chlorine (1 min pre-treatment) and/or DGH 100 ppm as active, untreated 7 000 000
Experimental: as §1
Authentic circulation water (1 litre) was collected from a paper machine producing food packaging board and divided into 4 samples with volume of 50 ml. To obtain equal bacterial spore content in the samples at start of the experiment, each sample was spiked with additional bacterial spores. The target level for spores was c.a. 10 000 CFU/ml. The spore solution for spiking was prepared as follows: authentic spore-forming bacteria that were isolated from a paper making process were pre-grown for 2 days at +37° C. in modified nutrient broth, after which the mature spores were harvested, and washed by using centrifugation and cold water. […]
Samples were stored at 45° C., under mixing of 180 rpm, for 30 minutes except samples 2 and 4, which were in addition pre-treated with sodium hypochlorite for 1 minute. After the treatment the amount of total aerobic bacteria (non-pasteurized samples) and aerobic spores were quantified (plate count agar, +32° C., 2 days incubation). […]

aerobic spores [3] = experiment: Example 2: aerobic spore count in stagnant 2 d old broke diluted with circulation water
Experimental: (§2) Authentic broke and circulation water samples were collected from an alkaline paper mill producing food packaging board. 1 litre of broke was stored for 2 days, +45° C., with closed cap, without mixing, in order to induce anaerobism and thus bacterial sporulation. This stagnant sample was divided to four 100 ml samples, out of which two replicate samples were treated with a germinant surfactant comprising 35 weight-% dodecylguanidine hydrochloride (DGH) and dipropyleneglycol as solvent. The dosage was 70 mg/L as active DGH. Two replicates were left without any chemical additions as reference samples.
(§3) After chemical contact time of 5 min, all samples were diluted three times with the circulation water and incubated for 30 minutes, at +45° C., mixing of 160 rpm. Total aerobes (PCA, +37° C.) and aerobic spores (PCA, +37° C.) were measured at start from reference samples and after the total contact time of 35 min from all samples.

total aerobic bacteria [4] = experiment: Example 1: total aerobic bacteria count in paper machine water/broke at variable pulp consistency; conditions: for Bacterial killing efficacy (%): DGH 100 mg/L as active vs no addition; for Total aerobic bacteria (+32° C., 2 d PCA): DGH 100 mg/L as active, 30 min, 45° C.
Text: (§4) Objective of this laboratory test was to study bacterial killing and spore sensitisation effect of a germinant surfactant composition comprising 35 weight-% of dodecylguanidine hydrochloride (DGH) and dipropyleneglycol as solvent in paper machine process water, at variable pulp consistency.
(§5) Authentic circulation water, with low fibre content, and authentic broke, with high fibre content, were collected from a paper machine, which produced food packaging board. Circulation water and broke samples were mixed together to obtain 6 samples in total, at 3 different pulp consistency levels.
(§6) To obtain equal bacterial spore content in the samples at the start of the experiment, each sample was spiked with additional bacterial spores. Target spore level in the sample was set to ca. 10 000 CFU/ml. The spore solution for spiking was prepared as follows: authentic spore-forming bacteria that were isolated from a paper making process were pre-grown for 2 days at +37° C. in a modified nutrient broth, after which the mature spores were harvested, and washed by using centrifugation and cold water.
(§7) Out of the 6 samples, 3 test samples were treated with germinant surfactant comprising dodecylguanidine hydrochloride (DGH) and 3 samples were left without any chemical addition as reference samples. After addition of germinant surfactant, the test samples as well as the reference samples (no addition) were stored at 45° C., mixing of 180 rpm, for 30 minutes, followed by quantification of total aerobic bacteria (non-pasteurized samples) and aerobic spores (plate count agar, +32° C., 2 days incubation). Prior to the aerobic spore determination, samples were pasteurized at +82° C. for 10 min. Weight of suspended solids per litre of liquid, i.e. pulp consistency, was determined at the end of the test (dry weight of sample per total weight of sample).

aerobic spores [5] = experiment: Example 1: aerobic spore count in spiked paper machine water/broke at variable pulp consistency; conditions: for Spore reduction (%): DGH 100 mg/L as active vs no addition; for Aerobic spores, cfu/ml (+82° C., 10 min, +32° C., 2 d PCA): DGH 100 mg/L as active, 30 min, 45° C.
Text: as §4, §5, §6, §7

total aerobic bacteria [6] = experiment: Example 2: total aerobes count in stagnant 2 d old broke diluted with circulation water; conditions: DGH 70 mg/l active 5 min, total contact time 35 min, +45° C., untreated 9×10^6 CFU/ml
Experimental: as §2, §3

Row | SMILES | Aerobic spores PCA +32 30 min @45° C. (aerobic spores [1]; pasteurized +82° C. 10 min, sodium hypochlorite 5 ppm as active chlorine and/or DGH 100 ppm as active, untreated 13 000) | effect on bacterial spores (aerobic spores [1]; sodium hypochlorite 5 mg/l as active chlorine) | spore reduction (aerobic spores [1]; DGH 100 mg/l active, with or without sodium hypochlorite 5 mg/l pre-treatment, vs untreated) | Total aerobic bacteria PCA +32, 30 min @45° C. (total aerobic bacteria [2]) | level of aerobic spores (aerobic spores [3]; stagnant 2 d old broke, DGH 70 mg/l active 5 min, diluted, total contact time 35 min, +45° C., untreated 330 CFU/ml) | spore reduction (aerobic spores [3]; stagnant diluted broke, DGH 70 mg/l active) | Bacterial killing efficacy (%) (total aerobic bacteria [4]; pulp consistency 0.1 w/w-%) | Total aerobic bacteria (+32° C., 2 d PCA) (total aerobic bacteria [4]; pulp consistency 0.1 w/w-%) | Bacterial killing efficacy (%) (total aerobic bacteria [4]; pulp consistency 3 w/w-%) | Total aerobic bacteria (+32° C., 2 d PCA) (total aerobic bacteria [4]; pulp consistency 3 w/w-%) | Bacterial killing efficacy (%) (total aerobic bacteria [4]; pulp consistency 6 w/w-%) | Total aerobic bacteria (+32° C., 2 d PCA) (total aerobic bacteria [4]; pulp consistency 6 w/w-%) | spore reduction (aerobic spores [5]; process streams with different pulp consistencies (summary of Example 1)) | Spore reduction (%) (aerobic spores [5]; pulp consistency 0.1 w/w-%) | Aerobic spores, cfu/ml (+82° C., 10 min, +32° C., 2 d PCA) (aerobic spores [5]; pulp consistency 0.1 w/w-%) | Spore reduction (%) (aerobic spores [5]; pulp consistency 3 w/w-%) | Aerobic spores, cfu/ml (+82° C., 10 min, +32° C., 2 d PCA) (aerobic spores [5]; pulp consistency 3 w/w-%) | Spore reduction (%) (aerobic spores [5]; pulp consistency 6 w/w-%) | Aerobic spores, cfu/ml (+82° C., 10 min, +32° C., 2 d PCA) (aerobic spores [5]; pulp consistency 6 w/w-%) | total aerobic bacteria level (total aerobic bacteria [6])
1 | OCl [sodium hypochlorite] | 17 000 CFU/ml | did not have any effect on bacterial spores | – | – | – | – | – | – | – | – | – | – | – | – | – | – | – | – | – | –
2 | CCCCCCCCCCCCNC(=N)N [DGH, dodecylguanidine hydrochloride] | – | – | > 70% | 10 000 CFU/ml | 120 CFU/ml | > 60% | 100% | 300 | 78% | 9 000 | 55% | 77 000 | > 45% | 98% | 400 cfu/ml | 87% | 700 cfu/ml | 45% | 2 800 cfu/ml | 2×10^6 CFU/ml
